Test results as given in publication PMC5344956 (Cancer Chemotherapy and Pharmacology, 2017).

Experiments:
BCR–ABL [1] = biological target: T1, BCR–ABL (Homo sapiens, UniProt P00519+P11274); assay: In vitro cellular activity screen against BCR–ABL (data not shown); assay type: cell-based
T1 sequence (P00519 229-512 limits assumed): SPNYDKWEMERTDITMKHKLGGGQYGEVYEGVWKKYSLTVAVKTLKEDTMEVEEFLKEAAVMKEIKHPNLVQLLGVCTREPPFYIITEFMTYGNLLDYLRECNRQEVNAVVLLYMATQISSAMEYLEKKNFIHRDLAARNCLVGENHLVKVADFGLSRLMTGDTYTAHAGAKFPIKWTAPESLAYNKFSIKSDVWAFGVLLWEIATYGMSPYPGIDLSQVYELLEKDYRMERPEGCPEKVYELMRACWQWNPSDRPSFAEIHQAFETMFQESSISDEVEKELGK

[2] = Plasma pharmacokinetics of TRA, ponatinib and metabolites after a single oral 45-mg [14C]ponatinib dose; settings: for time postdose at which C max / maximal levels in plasma were observed: single oral 45-mg dose, M23 by radiochromatography; for concentration at 144 h: oral
Method: The subject release criterion was defined as follows: the combined urine and fecal radioactivity excretion for two consecutive days should fall below 1% of the dose administered.
Detailed procedures on sample collection, storage, and shipment are described in Online Resource 1. […] Fecal homogenates were prepared by adding water (four times the feces weight) and homogenizing.
TRA analysis was carried out at ABC Laboratories. The radioactivity in plasma (duplicate per time point) and urine samples (triplicate per time point) was quantitated by direct counting in a Beckman LS6000SC or LS6500 liquid scintillation counter (PerkinElmer Life and Analytical Sciences, Boston, MA, USA). Whole blood (duplicate per time point) and fecal homogenate (triplicate per time point) samples were oxidized, and the resultant ^14CO2 was trapped in Carbosorb (Calgon Carbon Corporation, Pittsburgh, PA, USA) in combination with Permafluor, followed by liquid scintillation counting to determine the radioactivity. Individual samples were counted for 5 min for whole blood and fecal matrices, and 10 min for plasma and urine matrices. Predose blood, plasma, urine, and feces samples served as respective control samples to determine and subtract the background radioactivity in the analysis.
M14 was quantitated using a different LC/MS/MS method (Online Resource 2). The pharmacokinetic analysis was carried out using WinNonlin® v6.4 (Pharsight Corp., Mountain View, CA, USA).
Aliquots of 30 µl of calibration standards, quality controls, and incurred plasma samples were transferred into a 96-well plate. Then 150 µl of ice-cold acetonitrile containing 50 ng/ml of AP30376 (d6-AP24600, internal standard) were added. The 96-well plate was vortexed for 10 min and then centrifuged at 4750 rpm for 20 min at 4°C. 100 µl aliquots of the supernatants were transferred into another 96-well plate and the samples were analyzed by liquid chromatography tandem mass spectrometry.

[3] = Metabolite profiling of plasma (HPLC-radiochromatography); assay type: in vivo, human; settings: % of TRA
Method: For each subject, a 0–24 h pooled plasma sample was prepared according to the scheme outlined in the literature. In addition, several pooled plasma samples across all subjects were prepared at these time points: 5, 10, 12, […], and 48 h, and every 24 h thereafter until 240 h.
All pooled 0–24, 5, 10, 12, and 24 h plasma samples were processed as follows. […] The samples were vortexed for 30 min and centrifuged at 4500g at 4 °C for 6 min. The supernatants were transferred into new polypropylene tubes and kept on ice. The resulting plasma protein pellets were extracted twice to ensure good recovery and the extracts were combined. The combined extracts were loaded onto Ostro sample preparation plates (Waters Corporation, Milford, MA, USA), dried, eluted with 0.2 mL of cold acetonitrile, and all eluates were collected and evaporated under nitrogen (TurboVap LV; Caliper Life Sciences, Hopkinton, MA, USA). The dry residues were reconstituted in 0.1 mL of methanol, and a 0.005-mL aliquot was removed for determination of radioactivity. The remainder of the supernatants were transferred to high-performance liquid chromatography (HPLC) vials and stored at −80 °C until analysis.
Pooled post-24-h plasma samples were extracted using a slightly modified procedure. […] Appropriate volumes of formic acid were added to achieve a final concentration of 1%. Then, the samples were warmed to 37 °C and loaded to preconditioned Oasis HLB cartridges (Waters Corporation, Milford, MA, USA). These columns were then washed with water, dried under vacuum, and eluted with methanol. The eluates were collected and evaporated under nitrogen. The dry residues were reconstituted in 0.1 mL of methanol, and a 0.005-mL aliquot was removed for determination of radioactivity. The remainder of the supernatants were transferred to HPLC vials and stored at −80 °C until analysis.
(§1) A Finnigan Surveyor HPLC system (Thermo Fisher Scientific Inc., San Jose, CA, USA), consisting of an LC pump plus an autosampler and a UV–Vis plus detector, was used mostly for profiling (except the post-24-h plasma samples, which were analyzed using a Dionex HPLC system). A Phenomenex® Gemini® C18, 5-μm, 3.0 × 100-mm column (Phenomenex Inc., Torrance, CA, USA) was used along with a C-12 guard column (4 × 2 mm). LC conditions were as follows: solvent A was 10 mM ammonium bicarbonate in water (pH 10.0) and solvent B was 100% methanol and the flow rate was 0.8 mL/min. The following gradient was employed (B%): 0–5 min (20%), 32 min (42%), 33 min (60%), 55 min (70%), 56–60 min (95%), and 62–70 min (20%).
(§2) Reconstituted solvent extracts (0.050–0.10 mL) of plasma, urine, or feces were injected onto the HPLC column. The post-column eluate was split after UV detection into two streams (0.64 and 0.16 mL/min). The 0.64-mL stream was diverted to a fraction collector (Gilson FX 204; Gilson Medical Electronics, Middleton, WI, USA) to be collected in 96-well plates at 0.16 min/well (ScintiPlates; PerkinElmer Life Sciences, Shelton, CT, USA), and the 0.16-mL stream was directed to the mass spectrometer. The solvent in the 96-well plates was removed at 40 °C using a Genevac evaporator (Genevac, Inc., Stone Ridge, NY, USA).
(§3) The radioactivity counts per minute (CPM) in each well was determined using a MicroBeta scintillation counter (PerkinElmer Life and Analytical Sciences). The resulting CPM vs. time data were processed using Excel (Microsoft Corporation, Seattle, WA, USA). The CPM in each well was background-subtracted (using the average CPM values of the blank region of the HPLC run). Radiochromatographic profiles were obtained by plotting the resulting net CPM values against time after injection. Radioactive peaks in the chromatographic profiles were identified, and the radioactivity in each peak was summed and reported as a percentage of TRA in the HPLC run.

[4] = Metabolite characterization by LC/MS/MS in human plasma, urine, and feces; settings: human plasma, urine, feces; LC/MS/MS
Method: The remaining eluate stream of 0.16 mL/min from the HPLC runs was diverted to the inlet of the mass spectrometer. The samples were analyzed using a heated electrospray ionization probe. Full-scan positive ion MS data were collected using Finnigan Exactive (MS^1) or Q-Exactive (MS^1 and MS^2) mass spectrometers (Thermo Fisher Scientific Inc.) Exact conditions are described in the Online Resource 3.
Finnigan Exactive or Q-Exactive mass spectrometers (Thermo Fisher Scientific Inc., San Jose, CA) were used to collect full scan MS^1 and MS^2 data.

BCR–ABL [5] = assay: In vitro kinase activity screen against BCR–ABL (data not shown); assay type: biochemical
[6] = Metabolite profiling of urine (HPLC-radiochromatography); assay type: in vivo, human; settings: 0–72 h pool
Method: Predose and 0–72-h urine samples (grand pool of all six subjects) were prepared. Urine samples (5 mL) were centrifuged, the supernatant was transferred to a 15-mL polypropylene tube and placed on ice; the residues were extracted with 1 mL of methanol and the methanol extracts were added to the supernatants. The combined extracts were evaporated under nitrogen and reconstituted in 0.2 mL of methanol. A 0.010-mL aliquot of the reconstituted solution was removed for determination of radioactivity, and the remainder was transferred to HPLC vials and stored at −80 °C.
as §1, §2, §3

Row | Structure (SMILES) | activity against BCR–ABL, cellular activity screen (BCR–ABL [1]) | time postdose at which C max / maximal levels in plasma were observed ([2]; human plasma) | concentration at 144 h ([2]; male, human, plasma, 45 mg) | % Distribution in plasma ([3]; 0–24 h pooled plasma) | % Distribution in plasma ([3]; 5 h pooled plasma) | % Distribution in plasma ([3]; 10 h pooled plasma) | % Distribution in plasma ([3]; 12 h pooled plasma) | % Distribution in plasma ([3]; 36 h pooled plasma) | % Distribution in plasma ([3]; 48 h pooled plasma) | % Distribution in plasma ([3]; 72 h pooled plasma) | % Distribution in plasma ([3]; 96 h pooled plasma) | Matrix (in which the metabolite was found) [4] | activity against BCR–ABL, kinase screen (BCR–ABL [5]) | further results
1 | Cc1ccc(C(=O)O)cc1C#Cc1cnc2cccnn12 [M14, 3-(imidazo[1,2-b]pyridazin-3-ylethynyl)-4-methylbenzoic acid] | inactive | 2 to 12 h | < 2.4 nM | 14.9% | 29.0% | 10.8% | 12.8% | 2.4% | – (“–” values less than 0.5% are not reported) | – (“–” values less than 0.5% are not reported) | – (“–” values less than 0.5% are not reported) | P, U | inactive | plasma level at 144 h postdose ([2]; human plasma, 144 h postdose): at or below detectable limits; AUC(0-inf) ([2]; male, human, plasma, po, 45 mg): 0.181 µM·h; AUC(0-t) ([2]; male, human, plasma, po, 45 mg): 0.169 µM·h; Cmax ([2]; male, human, plasma, po, 45 mg): 5 nM; Tmax ([2]; male, human, plasma, po, 45 mg): 5 h; half-life ([2]; male, human, plasma, po, 45 mg): 33.7 h; % of total radioactive dose [6]: 0.3%; % Distribution in matrix ([6]; % of urinary TRA): 5.6%
2 | Cc1ccc(C(=O)Nc2ccc(C(=O)O)c(C(F)(F)F)c2)cc1C#Cc1cnc2cccnn12 [M23, 4-(3-(imidazo[1,2-b]pyridazin-3-ylethynyl)-4-methylbenzamido)-2-(trifluoromethyl)benzoic acid] | inactive | 36 h | < 3 nM | 7% | – (“–” values less than 0.5% are not reported) | 3.4% | 2.4% | 3.9% | 5.4% | 10.7% | 6.0% | P, U, F | inactive | –
